Experimental data: US20160235866A1, “MRI CONTRAST AGENTS FOR CELL LABELING” (THE GOVERNING COUNCIL OF THE UNIVERSITY OF TORONTO, priority 2013, published 2016)
Entries after “also recorded” stand apart in the source; their conditions may differ.

Assays:
[1] = system: Human breast cancer cells MDA-MB-231; experiment: Intracellular contrast agent concentration by GFAAS of cell digests; type: cell-based; details: for Mn / Mn content per cell relative to control: GFAAS of cell digests; for Mn: 83 μM incubation for 2 hours; for Mn content per cell relative to control: control = 1
Procedure: (§1) Human breast cancer cells MDA-MB-231 were grown at 37° C. with 5% CO2 in 1640-RPMI medium supplemented with 10% fetal bovine serum and 0.5% penicillin streptomycin. Contrast agents were quantified for manganese content by flame AAS prior to cell labeling. MnTCP was dissolved in ultrapure water and MnTriAMP was dissolved in DMSO to give 17 mM stock solutions. The stock solutions were added to the medium with the cells resulting in 83 μM incubation of 2-MnTriAMP or 1-MnTCP for 2 hours. The medium was removed and the cells were washed with fresh medium 5× and then were harvested by washing with PBS followed by addition of 0.05% trypsin EDTA to detach the cells. Viability was assessed directly after labeling with trypan blue exclusion test and observation of cell morphology by phase microscopy.
The intracellular contrast agent concentration was determined after cell labeling by centrifugation of a known number of cells followed by removal of the supernatant and digestion of the cells by addition of 1 M nitric acid (0.5 ml) and 30 min of heating at 70° C. Then 3 ml of ultrapure water was added to the digested cells, the mixture was filtered and then quantified by graphite furnace atomic absorption spectroscopy (GFAAS) shown in Table 3.

[2] = system: Human breast cancer cells MDA-MB-231; experiment: Viability by trypan blue exclusion test after cell labeling; type: cell-based; details: for Viability (%) (±SEM): 83 μM incubation, MDA-MB-231
Procedure: as §1

[3] = system: MDA-MB-231 breast cancer cell pellets; experiment: MRI T1 and T2 time measurements of labeled cell pellets; type: cell-based, Human; details: MDA-MB-231 cell pellets after 83 μM incubation for 2 hours
Procedure: as §1
For MRI, cell pellets were formed by centrifugation at 440 g for 10 minutes. Subsequent MR was done with a T1-weighted 2D spin-echo image: TR=100 ms, TE=14.163 ms, 3 mm slice thickness, 0.5×0.5 mm in-plane resolution (FIG. 1).

[4] = 0.47 T (20 MHz for 1H Larmor frequency), 37° C.; cited from earlier work

| Compound | Mn [1] [mM/cell] | Mn content per cell relative to control [1] | Viability (%) (±SEM) ([2]; 0 hours after 2 h treatment) | Viability (%) (±SEM) ([2]; 3 days after 2 h treatment) | T1 [3] [ms] | T2 [3] [ms] | relaxivity [4] [mM⁻¹ s⁻¹] | cellular uptake (in words) ([1]; MDA-MB-231, compared to 1-MnTCP, from relaxation times and GFAAS data) | toxicity / cell viability after labeling (in words) ([2]; MDA-MB-231 after labeling) |
| --- | --- | --- | --- | --- | --- | --- | --- | --- | --- |
| O=C(O)c1c2nc(c(C(=O)O)c3ccc([n-]3)c(C(=O)O)c3nc(c(C(=O)O)c4ccc1[n-]4)C=C3)C=C2.[Cl-].[Mn+3] [1-MnTCP, [5,10,15,20-tetrakis(carboxy)porphyrinato]manganese(III) chloride] | 1.90E−13 | 33.22 | 98 ± 1 | 80 ± 6 | 1072.1 ± 28.0 | 108.1 ± 9.3 | – | – | – |
| MnTPPS | – | – | – | – | – | – | ~12 | – | – |
| [5-carboxy-10,15,20-tris(acetoxymethylcarboxy)porphyrinato]manganese(III) [2-MnTriAMP] | 6.05E−13 | 105.83 | 97 ± 2 | 87 ± 6 | 215.4 ± 12.1 | 66.7 ± 4.4 | – | significant uptake; also recorded: sufficient cellular uptake and retention | without affecting the cell viability |
